Patent publication EP1820502A1, “Active substance combination comprising azolylcarbinol compounds” (LABORATORIOS DEL DR. ESTEVE, S.A., priority 2006, dated 2007)

System: mechanical allodynia/hyperalgesia in rats with unilateral ligatures of the sciatic nerve
Assay: Randall-Selitto test (pressure thresholds for paw withdrawal and vocalization) in rats with unilateral ligatures of the sciatic nerve
Type: in vivo
Conditions: two weeks after sciatic nerve ligature, cizolirtine 5 mg/kg i.p., gabapentin 30 mg/kg i.p., or both 5 min apart; for pressure thresholds for triggering vocalization (analgesic effect): Figure 2; for pressure thresholds to trigger paw withdrawal (analgesic effect): ipsilateral right hindpaw, Figure 1
Method: Ligatures of the right sciatic nerve were made in pentobarbital (50 mg/kg i.p.)-anesthetized rats according to the classical protocol of Bennett and Xie (1988) which is well known by those skilled in the art. Sham operated animals were subjected to the same surgical procedure except that the nerve was not ligated. Prior to surgery and two weeks afterwards, rats were subjected to the Randall-Selitto test to determine the pressure thresholds for triggering withdrawal of the ipsilateral, right hindpaw and vocalization. Animals were then immediately injected with either cizolirtine (5 mg/kg i.p.), gabapentin (30 mg/kg i.p.) or both drugs. In the latter case, a 5 min interval elapsed between the injection of cizolirtine (1st) and that of gabapentin (2nd). Time 0 on the abscissa (see Figs 1 & 2) corresponded to the second injection. The Randall-Selitto test was then applied for the determination of pressure thresholds at various times up to at least 5 hours thereafter.

Row | Compound | pressure thresholds for triggering vocalization (analgesic effect) | pressure thresholds to trigger paw withdrawal (analgesic effect)
1 | NCC1(CC(=O)O)CCCCC1 [Gabapentin, 1-(aminomethyl) cyclohexaneacetic acid] | decrease the threshold to trigger vocalization | decrease the pressure threshold to trigger paw withdrawal
2 | CN(C)CCOC(c1ccccc1)c1ccnn1C (racemic) [Cizolirtine, (±)-N,N-dimethyl-2-((1-methyl-1H-pyrazol-5-yl)(phenyl)methoxy)ethanamine] | decrease the threshold to trigger vocalization | decrease the pressure threshold to trigger paw withdrawal
